Paper PMC8305389, “Tuning Photodynamic Properties of BODIPY Dyes, Porphyrins’ Little Sisters” (Molecules, 2021)
Marks after values point to notes of the source that are not given here. One block for each compound: values may come before it.

Assays:
[1] = test system: human melanoma (SK-MEL-28) cells; assay: Photodynamic activity (phototoxicity) after light activation, Neutral Red uptake; assay type: cell-based
Method: (§1) The human cervical carcinoma (HeLa) and human melanoma (SK-MEL-28) cell lines were purchased from the American Type Cell Culture Collection (ATCC; Manassas, VA, USA). Both cell lines were cultured in Dulbecco’s modified Eagle’s medium (DMEM) without phenol red (Lonza, Verviers, Belgium) and supplemented with 10% heat-inactivated fetal bovine serum (Sigma-Aldrich (Merck, Darmstadt, Germany), 1% penicillin/streptomycin solution (Lonza), 10 mM HEPES buffer (Lonza), and 4 mM ultraglutamine I (alanyl-L-glutamine; Lonza). The cell lines were cultured in 75 cm^2 tissue culture flasks (TPP, Trasadingen, Switzerland) and maintained in a CO2 incubator at 37 °C in a humidified atmosphere of 5% CO2 and subcultured every 3−4 days. For the cytotoxicity experiments (phototoxicity and dark toxicity), cells were seeded into 96-well plates (TPP) at a density of 7.5 × 10^3 (HeLa and SK-MEL-28) cells per well for 24 h.
(§2) Stock solutions of the investigated compounds were prepared in DMSO at a concentration of 0.5 mM (4b) or 1 mM (all other compounds) and were sterilized by filtration through 0.22 μm syringe MCE filters. The stock solutions were diluted by the above-mentioned cell culture medium to the required concentrations. The maximum DMSO concentration in the medium in the experiments was 1% (2% in case of cpd. 4b). Cytoxicity of DMSO at corresponding concentrations (without studied compounds) was assessed in all cytotoxicity experiments as well—no toxicity against SK-MEL-28 or HeLa cells was observed.
(§3) For the photodynamic activity assessment experiments (phototoxicity), both HeLa and SK-MEL-28 cells were incubated overnight (12 h) with the studied compounds. The cells were then carefully and swiftly washed twice with a prewarmed sterile phosphate-buffered saline, fresh cell culture medium was added, and cells were subsequently irradiated for 15 min using a 450 W ozone-free Xe lamp (Newport; intensity reduced to 400 W). The lamp was equipped with a long-pass filter (Newport 20CGA-455) and an 8-cm water filter to cut off undesirable wavelengths and heat radiation, respectively (λ > 455 nm, 15.3 mW cm^−2, 15 min, 13.7 J cm^−2). Cellular viability was measured after an additional 24 h by the above-mentioned NR uptake assay. At least four independent experiments, each in triplicate, were performed.
(§4) The concentrations of the studied compounds that induced a 50% decrease in cellular viability after treatment under the dark conditions (TC50, the median toxic concentration) or after the photodynamic treatment (EC50, the median effective concentration) were calculated using GraphPad Prism software (version 9.1.2; GraphPad Software, Inc., San Diego, CA, USA) for each independent experiment. The data are presented as the means ± standard deviations of these values.

[2] = test system: human cervical carcinoma (HeLa) cells; assay: as above; assay type: cell-based; details: Homo sapiens, light or radiation study; HeLa; 12 h incubation; λ > 455 nm, 15.3 mW cm−2, 15 min, 13.7 J cm−2
Method: as §1, §2, §3, §4

SK-MEL-28 cells = assay: Dark toxicity (without irradiation), Neutral Red uptake; assay type: cell-based, human; details: 24 h in the dark, compounds precipitated over listed values
Method: as §1, §2
To assess dark toxicities (inherent toxicities of the studied compounds without irradiation), SK-MEL-28 cells were treated with studied PSs for 24 h in the dark. Viability was evaluated after two washing steps using the Neutral Red (NR; Sigma-Aldrich (Merck, Darmstadt, Germany) uptake assay, based on the ability of the living cells to incorporate NR into their intact lysosomes (concentration of NR in cell culture medium was 30 μg/mL and incubation time with NR was 2 h). The absorbance of soluble NR in cell lysate was measured at λ = 540 nm using a Tecan Infinite 200 M plate reader (Tecan, Männedorf, Switzerland). The viability of each experimental group was expressed as the percentage of the untreated controls incubated under the same conditions (100%). After staining (before lysis), the cells were briefly investigated under the microscope to verify changes in cellular morphology and the presence of NR in lysosomes (orange-red spots in the cells). These observations were in agreement with NR measurements.
as §4

[3] = Absorption and fluorescence measurements (quantum yield, lifetime); assay type: physicochemical; details: MeOH
Method: The singlet oxygen quantum yields (ΦΔ) and the fluorescence quantum yields (ΦF) of tested samples in MeOH were determined using published comparative (relative) methods with rhodamin-G6 used as a reference for fluorescence (ΦF = 0.94 in EtOH [31]), and bengal rose as a reference for singlet oxygen determinations (ΦΔ = 0.76 in MeOH [32]). Singlet oxygen measurements were performed with 1,3-diphenylisobenzofuran as the chemical scavenger of singlet oxygen by monitoring its decomposition at 417 nm. The ΦF values were also determined by an absolute method using an integrating sphere in an FLS1000 fluorimeter (Edinburgh Instruments, Edinburgh, UK). Fluorescence lifetimes were measured on the same fluorimeter upon excitation by HPL510 laser (Edinburgh Instruments, λ = 506.1 nm).

[4] = Photobleaching in serum-containing cell culture medium; assay type: physicochemical; details: 10 µM, 1 h of irradiation, 500W halogen lamp
Method: The photobleaching experiments were performed in a serum-containing cell culture medium at a concentration of 10 µM. The samples were prepared by direct dilution from the 1 mM DMSO stock solution (0.5 mM in case of 4b). The quartz cuvette with the sample (2.5 mL) was irradiated by the 500W halogen lamp (Tip) from a distance of 60 cm at room temperature. The light was filtered through a 7 cm water filter to eliminate heat. The absorption spectra were collected every 10 min. The experiment was performed in triplicate.

[5] = design: method as in PMID 10546544; details: in MeOH; cited from earlier work
[6] = design: method as in doi:10.1016/0009-2614(96)00838-X; details: in EtOH; cited from earlier work

absorption maximum (λmax) [3]: 498 nm
emission maximum (λF) [3]: 507 nm
extinction coefficient (log ε) ([3]; at λmax): 4.77
fluorescence quantum yield, absolute method (ΦF(absol)) ([3]; integrating sphere): 0.52
fluorescence quantum yield, relative method (ΦF(relat)) ([3]; rhodamin-G6 as reference): 0.49
fluorescence lifetime (τF) ([3]; λexc = 506.1 nm): 3.27 ns
absorption remaining, of the original value, after irradiation (photobleaching) [4]: approximately 87%
Structure (SMILES): CC1=CC(C)=[N+]2C1=C(c1ccc(OCCCCCN3C(=O)c4ccccc4C3=O)cc1)c1c(C)cc(C)n1[B-]2(F)F [2a, 1,3,5,7-Tetramethyl-8-{4-[5-(phthalimidyl)pentyloxy]phenyl}-4,4-difluoro-4-bora-3a,4a-diaza-s-indacene]
TC50/EC50, phototherapeutic index [1]: >3.92
EC50 ([1]; Homo sapiens, light or radiation study, 12 h incubation, λ > 455 nm, 15.3 mW cm−2, 15 min, 13.7 J cm−2): 2.55 ± 0.14 µM
EC50 [2]: 3.6 ± 0.19 µM
TC50, dark toxicity (SK-MEL-28 cells): >10^b μM

Structure (SMILES): O=C(O)c1c(Cl)c(Cl)c(Cl)c(Cl)c1-c1c2cc(I)c(=O)c(I)c-2oc2c(I)c(O)c(I)cc12 [bengal rose]
singlet oxygen quantum yield (ΦΔ) of reference [5]: 0.76

Structure (SMILES): CCN=c1cc2oc3cc(NCC)c(C)cc3c(-c3ccccc3C(=O)OCC)c-2cc1C.Cl [rhodamin-G6]
fluorescence quantum yield (ΦF) of reference [6]: 0.94
